Assay results taken from US12110276B2 (Genentech, Inc., priority 2021, dated 2024).
pIC50: −log10 of the molar value. Read-outs that look alike come from different tables or passages of the source.

Legend:
TEAD1 = TEAD1 (Homo sapiens (Human), UniProt P28347); assay: TR-FRET lipid pocket probe competition assay (Lipid HTRF), TEAD1; type: binding;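 note: His-tagged TEAD1 with biotinylated probe, detected via Europium anti-His and XL665 streptavidin, probe displacement lowers TR-FRET signal, IC50 from four-parameter nonlinear fit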
Sequence of TEAD1 (P28347 whole entry, species assumed): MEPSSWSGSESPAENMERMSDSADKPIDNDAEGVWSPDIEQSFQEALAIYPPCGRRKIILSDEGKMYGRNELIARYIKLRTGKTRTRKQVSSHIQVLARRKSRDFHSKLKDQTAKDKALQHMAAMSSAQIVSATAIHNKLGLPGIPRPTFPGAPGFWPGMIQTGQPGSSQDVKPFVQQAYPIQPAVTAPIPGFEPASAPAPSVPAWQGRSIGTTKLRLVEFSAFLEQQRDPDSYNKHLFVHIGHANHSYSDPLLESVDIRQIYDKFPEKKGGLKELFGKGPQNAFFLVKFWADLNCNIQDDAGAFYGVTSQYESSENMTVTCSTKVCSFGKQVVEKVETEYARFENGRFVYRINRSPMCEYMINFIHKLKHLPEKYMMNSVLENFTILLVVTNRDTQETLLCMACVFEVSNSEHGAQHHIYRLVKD

TEAD3 = TEAD3 (Homo sapiens (Human), UniProt Q99594); assay: TR-FRET lipid pocket probe competition assay (Lipid HTRF), TEAD3; type: binding
Sequence of TEAD3 (Q99594 whole entry, species assumed): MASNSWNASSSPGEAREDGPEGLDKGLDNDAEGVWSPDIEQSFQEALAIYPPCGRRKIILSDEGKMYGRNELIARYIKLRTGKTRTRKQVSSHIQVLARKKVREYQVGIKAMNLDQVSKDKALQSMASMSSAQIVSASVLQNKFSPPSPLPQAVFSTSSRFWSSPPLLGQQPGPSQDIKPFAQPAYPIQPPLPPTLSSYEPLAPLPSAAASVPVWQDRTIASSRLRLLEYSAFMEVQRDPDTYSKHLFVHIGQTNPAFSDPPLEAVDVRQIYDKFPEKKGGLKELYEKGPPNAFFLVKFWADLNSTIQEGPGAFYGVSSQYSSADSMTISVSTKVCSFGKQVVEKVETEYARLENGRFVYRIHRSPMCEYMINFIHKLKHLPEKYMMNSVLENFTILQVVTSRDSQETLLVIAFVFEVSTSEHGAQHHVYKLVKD

TEAD4 = TEAD4 (Homo sapiens (Human), UniProt Q15561); assay: TR-FRET lipid pocket probe competition assay (Lipid HTRF), TEAD4; type: binding;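 note: His-tagged TEAD4 with biotinylated lipid-pocket probe, read by Europium anti-His and XL665 streptavidin, where probe displacement lowers the TR-FRET signal, IC50 from a four-parameter fit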
Sequence of TEAD4 (Q15561 whole entry, species assumed): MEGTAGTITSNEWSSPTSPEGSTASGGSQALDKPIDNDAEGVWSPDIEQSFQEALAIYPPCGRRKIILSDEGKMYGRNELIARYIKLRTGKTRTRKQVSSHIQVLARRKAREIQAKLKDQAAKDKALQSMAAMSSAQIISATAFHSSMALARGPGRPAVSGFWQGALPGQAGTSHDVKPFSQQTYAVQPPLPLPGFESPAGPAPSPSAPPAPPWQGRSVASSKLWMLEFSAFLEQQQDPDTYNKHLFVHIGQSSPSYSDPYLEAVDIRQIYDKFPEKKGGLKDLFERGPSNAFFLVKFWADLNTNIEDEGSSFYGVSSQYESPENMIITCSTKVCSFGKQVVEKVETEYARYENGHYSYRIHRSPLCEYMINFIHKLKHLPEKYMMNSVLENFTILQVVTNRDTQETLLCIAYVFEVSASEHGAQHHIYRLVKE

hNav1.5 sodium channels = hNav1.5 sodium channels (Homo sapiens (Human), UniProt Q14524); assay: Cloned hNav1.5 sodium channels expressed in CHO cells, QPatch HT automated patch clamp; type: cell-based
Sequence of hNav1.5 sodium channels (Q14524 whole entry): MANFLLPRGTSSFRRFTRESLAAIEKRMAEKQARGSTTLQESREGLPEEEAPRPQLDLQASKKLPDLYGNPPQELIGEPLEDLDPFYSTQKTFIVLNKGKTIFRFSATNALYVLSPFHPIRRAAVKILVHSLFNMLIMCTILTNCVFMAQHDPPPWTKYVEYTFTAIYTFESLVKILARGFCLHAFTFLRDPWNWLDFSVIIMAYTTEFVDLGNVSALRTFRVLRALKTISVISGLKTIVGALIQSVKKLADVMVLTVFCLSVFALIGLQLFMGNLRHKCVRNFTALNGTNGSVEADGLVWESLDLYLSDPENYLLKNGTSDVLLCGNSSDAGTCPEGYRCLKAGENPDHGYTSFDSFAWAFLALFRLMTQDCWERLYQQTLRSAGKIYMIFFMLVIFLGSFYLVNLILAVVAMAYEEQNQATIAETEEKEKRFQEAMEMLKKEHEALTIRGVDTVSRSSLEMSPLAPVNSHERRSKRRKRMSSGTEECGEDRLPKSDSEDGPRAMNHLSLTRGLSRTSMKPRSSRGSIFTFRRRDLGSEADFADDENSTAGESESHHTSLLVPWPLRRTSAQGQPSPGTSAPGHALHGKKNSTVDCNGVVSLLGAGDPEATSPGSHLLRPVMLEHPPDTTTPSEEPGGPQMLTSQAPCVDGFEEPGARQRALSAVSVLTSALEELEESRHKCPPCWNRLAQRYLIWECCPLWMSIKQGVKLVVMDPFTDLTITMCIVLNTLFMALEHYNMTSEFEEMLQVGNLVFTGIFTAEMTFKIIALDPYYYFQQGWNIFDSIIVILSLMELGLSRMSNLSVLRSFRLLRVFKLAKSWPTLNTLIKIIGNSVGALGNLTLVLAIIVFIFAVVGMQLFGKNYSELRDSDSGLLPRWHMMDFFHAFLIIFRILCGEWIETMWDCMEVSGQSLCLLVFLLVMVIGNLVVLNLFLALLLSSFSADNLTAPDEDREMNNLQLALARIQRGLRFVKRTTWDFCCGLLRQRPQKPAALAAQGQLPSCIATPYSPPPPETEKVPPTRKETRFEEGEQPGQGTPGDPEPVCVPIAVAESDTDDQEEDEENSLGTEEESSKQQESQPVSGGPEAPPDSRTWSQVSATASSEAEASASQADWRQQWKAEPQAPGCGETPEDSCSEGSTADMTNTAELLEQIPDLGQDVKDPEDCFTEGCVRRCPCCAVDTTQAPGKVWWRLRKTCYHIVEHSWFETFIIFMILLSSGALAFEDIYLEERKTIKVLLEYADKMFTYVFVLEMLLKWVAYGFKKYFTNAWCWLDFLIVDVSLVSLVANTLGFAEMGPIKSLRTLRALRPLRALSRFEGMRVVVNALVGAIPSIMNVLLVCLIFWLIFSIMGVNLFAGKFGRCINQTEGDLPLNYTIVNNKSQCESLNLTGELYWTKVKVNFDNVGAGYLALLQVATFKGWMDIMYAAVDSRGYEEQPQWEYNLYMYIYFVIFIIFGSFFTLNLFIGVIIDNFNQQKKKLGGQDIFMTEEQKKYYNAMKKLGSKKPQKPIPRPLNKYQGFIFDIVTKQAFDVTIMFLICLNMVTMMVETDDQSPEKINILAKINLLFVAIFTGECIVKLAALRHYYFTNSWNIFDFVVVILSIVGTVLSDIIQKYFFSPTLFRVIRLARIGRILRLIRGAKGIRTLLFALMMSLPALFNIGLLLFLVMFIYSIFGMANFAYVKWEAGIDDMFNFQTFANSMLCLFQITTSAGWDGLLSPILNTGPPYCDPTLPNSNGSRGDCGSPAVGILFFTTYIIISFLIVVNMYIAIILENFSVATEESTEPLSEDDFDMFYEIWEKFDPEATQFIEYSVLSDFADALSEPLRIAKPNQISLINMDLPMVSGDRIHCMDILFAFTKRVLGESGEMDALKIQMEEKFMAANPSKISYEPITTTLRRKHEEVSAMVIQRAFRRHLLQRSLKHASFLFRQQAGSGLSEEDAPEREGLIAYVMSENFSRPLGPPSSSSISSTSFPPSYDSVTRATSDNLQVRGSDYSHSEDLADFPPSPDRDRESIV
Method: Example 183 A: Effects of Test Article on Cloned hNav1.5 Sodium Channels Expressed in Mammalian Cells
Chinese hamster ovary (CHO) cells expressing cloned hNav1.5 sodium channels (hNav1.5, encoded by the human SCNSA gene) are responsible for INa sodium channel current. From a 10 mM stock solution, test article was diluted to make a 1 mM, 0.1 mM, and 0.01 mM sub stock, which were stored frozen. All chemicals used in solution preparation were purchased from Sigma-Aldrich (St. Louis, MO) and were of ACS reagent grade purity or higher. Stock solutions of the test articles and the positive control were prepared in dimethyl sulfoxide (DMSO) and stored frozen. Test article and positive control concentrations were prepared fresh daily by diluting stock solutions into a HEPES-buffered physiological saline (HB-PS) solution (composition in mM): NaCl, 137; KCl, 4.0; CaCl2, 1.8; MgCl2, 1; HEPES, 10; Glucose, 10; pH adjusted to 7.4 with NaOH (refrigerated until use). […] Each test article formulation was sonicated (Model 2510/5510, Branson Ultrasonics, Danbury, CT) at room temperature for 20 minutes to facilitate dissolution. In preparation for the recording session, a glass-lined 96-well compound plate was loaded with the appropriate amounts of test and control solutions and placed in the plate well of the QPatch HT® (Sophion Bioscience A/S, Denmark), an automatic parallel patch clamp system. […]

TEAD2 [1] = target: T1, TEAD2 (Homo sapiens (Human), UniProt Q15562);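 note: TR-FRET competition assay with His-tagged TEAD protein and a biotinylated lipid pocket probe, compound pre-incubated 30 min or 4 h at room temperature, displacement lowers signal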
T1 sequence (Q15562 whole entry, species assumed): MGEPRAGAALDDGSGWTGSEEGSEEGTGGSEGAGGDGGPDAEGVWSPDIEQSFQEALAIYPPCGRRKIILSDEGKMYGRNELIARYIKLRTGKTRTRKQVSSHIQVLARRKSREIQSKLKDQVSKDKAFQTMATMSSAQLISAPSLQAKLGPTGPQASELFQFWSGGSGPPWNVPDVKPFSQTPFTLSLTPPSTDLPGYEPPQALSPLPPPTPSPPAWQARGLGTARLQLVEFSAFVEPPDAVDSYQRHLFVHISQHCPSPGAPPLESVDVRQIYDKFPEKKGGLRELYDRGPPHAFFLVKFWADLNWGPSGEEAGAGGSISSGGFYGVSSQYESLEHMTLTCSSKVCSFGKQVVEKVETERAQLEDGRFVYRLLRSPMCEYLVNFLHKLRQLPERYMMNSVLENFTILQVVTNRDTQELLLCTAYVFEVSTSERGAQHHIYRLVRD
Method: (§1) His-tagged TEAD proteins are pre-incubated with TEAD project compounds for 30 minutes or 4 hours at room temperature. Biotinylated lipid pocket probes are then added to the TEAD/Compound mixture and incubated for 60 minutes at room temperature. The lipid pocket probe competes with the test compound for the TEAD lipid pocket until equilibrium is reached. After 60 minutes, Europium labelled anti-His (Perkin Elmer #AD0110) and XL665 labelled streptavidin (CIS Bio 610SAXAC) are added to the TEAD/test compound/lipid pocket mixture and incubated for 30 minutes or 4 hours. TR-FRET values are then measured using an EnVision multi-label plate reader (Perkin Elmer Cat #2104-0010A.) If the lipid pocket probe binds to TEAD as expected, a TR-FRET signal results from the proximity of anti-His Eu and XL665. If a TEAD lipid pocket binder such as binds and displaces the lipid pocket probe, the disruption of the TEAD:probe interaction results in a decrease in TR-FRET signal. The potency of compounds as TEAD lipid pocket binders is determined by IC50 value generated using a non-linear 4 parameter curve fit.

TEAD2 [2] = target: T1, TEAD2; assay: biochemical
Method: as §1

[3] = 4 hours pre-incubation, read-out: Lipid HTRF TEAD1 IC50
[4] = 4 hours pre-incubation, read-out: Lipid HTRF TEAD3 IC50
[5] = 4 hours pre-incubation, read-out: Lipid HTRF TEAD4 IC50

pIC50 (TEAD1; [3]) | pIC50 (TEAD3; [4]) | pIC50 (TEAD4; [5]) | pIC50 (TEAD2 [2]) | SMILES | NaV1.5 (Phasic) 10 uM concentration % inhibition (hNav1.5 sodium channels; 10 uM, mean % inhibition, n>=2 cells) [%] | pIC50 (TEAD2 [1]) | pIC50 (hNav1.5 sodium channels; 0.01-100 uM, read-out: NaV1.5 (Phasic) IC50) | pIC50 (TEAD1) | pIC50 (TEAD3) | pIC50 (TEAD4)
 |  |  |  | C=C(F)C(=O)N1CC(c2nn(-c3ccc(OC(F)(F)F)cc3)c3nccc(CO)c23)C1 [Compound 20, 2-fluoro-1-[3-[4-(hydroxymethyl)-1-[4-(trifluoromethoxy)phenyl]pyrazolo[3,4-b]pyridin-3-yl]azetidin-1-yl]prop-2-en-1-one] |  |  | 4.38 |  |  | 
7.03 | 5.24 | 7.19 | 7.40 | C=CC(=O)NCc1nn(-c2ccc(OC(F)(F)F)cc2)c2nccc(N3CCOCC3)c12 [Compound 77, N-((4-morpholino-1-(4-(trifluoromethoxy)phenyl)-1H-pyrazolo[3,4-b]pyridin-3-yl)methyl)acrylamide] |  |  |  |  |  | 
7.80 | 6.54 | 7.55 | 7.21 | [2H]C([2H])=C([2H])C(=O)NCc1nn(-c2ccc(OC(F)(F)F)cc2)c2nccc(CO)c12 [Compound 111, 2,3,3-Trideuterio-N-[[4-(hydroxymethyl)-1-[4-(trifluoromethoxy)phenyl]pyrazolo[3,4-b]pyridin-3-yl]methyl]prop-2-enamide] |  |  |  |  |  | 

SMILES | pIC50 (TEAD1; [3]) | pIC50 (TEAD3; [4]) | pIC50 (TEAD4; [5]) | pIC50 (TEAD2 [2]) | NaV1.5 (Phasic) 10 uM concentration % inhibition (hNav1.5 sodium channels; 10 uM, mean % inhibition, n>=2 cells) [%] | pIC50 (TEAD2 [1]) | pIC50 (hNav1.5 sodium channels; 0.01-100 uM, read-out: NaV1.5 (Phasic) IC50) | pIC50 (TEAD1) | pIC50 (TEAD3) | pIC50 (TEAD4)
C=CC(=O)NCc1nn(-c2ccc(OC(F)(F)F)cc2)c2nccc([C@H](O)CO)c12 [Compound 17, N-[[4-[(1S)-1,2-dihydroxyethyl]-1-[4-(trifluoromethoxy)phenyl]pyrazolo[3,4-b]pyridin-3-yl]methyl]prop-2-enamide] | 7.46 | 6.11 | 7.70 |  | 32.1 | 7.49 |  |  |  | 
[2H]C([2H])=C([2H])C(=O)NCc1nn(-c2ccc(OC(F)(F)F)cc2)c2nccc([C@H](O)CO)c12 [Compound 154, (S)-N-((4-(1,2-Dihydroxyethyl)-1-(4-(trifluoromethoxy)phenyl)-1H-pyrazolo[3,4-b]pyridin-3-yl)methyl)acrylamide-2,3,3-d3] |  |  |  | 7.44 |  |  |  | 7.36 | 5.92 | 7.66
